The results in this text go back to patent US20140363830A1, “COMPOUNDS THAT MODULATE HSP90 ACTIVITY AND METHODS FOR IDENTIFYING SAME” (SYNTA PHARMACEUTICALS CORP., priority 2006, published 2014).

In experiment [1] the test system is Hsp90 protein. The experiment is described as follows: Malachite Green assay of ATPase activity of Hsp90 protein. The conditions noted are these: 37° C., 4 hours. Type of experiment: biochemical. How it is done: Hsp90 protein was obtained from Stressgen (Cat#SPP-770). Assay buffer: 100 mM Tris-HCl, Ph7.4, 20 mM KCl, 6 mM MgCl2. […] Malachite green reagent was added to the reaction. […] The plate was read by an ELISA reader with an absorbance at 620 nm.

In experiment [2] the test system is Her2. The experiment is described as follows: Degradation of Her2 in BT-474 cells (Western blot). Type of experiment: cell-based, Human. The conditions noted are these: overnight. On the procedure: Human high-Her2 breast carcinoma BT474 (HTB-20), SK-BR-3 (HTB-30) and MCF-7 breast carcinoma (HTB-22) from American Type Culture Collection, VA, USA were grown in Dulbecco's modified Eagle's medium with 4 mM L-glutamine and antibiotics (100 IU/ml penicillin and 100 ug/ml streptomycine; GibcoBRL). To obtain exponential cell growth, cells were trypsinized, counted and seeded at a cell density of 0.5×10^6 cells/ml regularly, every 3 days. All experiments were performed on day 1 after cell passage.
After treatment, each cytoplasmic sample was prepared from 1×10^6 cells by incubation of cell lysis buffer (#9803, cell Signaling Technology) on ice for 10 minutes. The resulting supernatant used as the cytosol fractions were dissolved with sample buffer for SDS-PAGE and run on a SDS-PAGE gel, blotted onto a nitrocellulose membrane by using semi-dry transfer. Non-specific binding to nitrocellulose was blocked with 5% skim milk in TBS with 0.5% Tween at room temperature for 1 hour, then probed with anti-Her2/ErB2 mAb (rabbit IgG, #2242, Cell Signaling) and anti-Tubulin (T9026, Sigma) as housekeeping control protein. HRP-conjugated goat antirabbit IgG (H+L) and HRP-conjugated horse antimouse IgG (H+L) were used as secondary Ab (#7074, #7076, Cell Signaling) and LumiGLO reagent, 20× Peroxide (#7003, Cell Signaling) was used for visualization.
A general note: Immunoblotting shows a protein as a band on a membrane.

`Oc1ccc(-c2nnc(S)n2-c2cccc3ccccc23)c(O)c1` [Compound 108, 3-(2,4-Dihydroxy-phenyl)-4-(naphthalen-1-yl)-5-mercapto-[1,2,4]triazole]: the “ATPase activity of Hsp90” value is “significant inhibition” in experiment [1] (4 μM) and “even greater inhibition of ATPase activity of Hsp90 than geldanamycin” in experiment [1] (40 μM). Further, the Her2 degradation entry in experiment [2] (0.5 μM) is reported as “partially degradated”; in experiment [2] (2 μM) it was “partially degradated”; in experiment [2] (5 μM) it was “almost completely degraded”.
